Laboratory results: publication PMC6934184, “Selective DNA-PKcs inhibition extends the therapeutic index of localized radiotherapy and chemotherapy” (The Journal of Clinical Investigation, 2019)

Molecular target: T1, MARK2 (Homo sapiens, UniProt Q7KZI7)
T1 construct: purchased Thermo Fisher Scientific (Life Technologies) SelectScreen
Assay: SelectScreen Z'LYTE
Assay type: biochemical
Procedure, shortened: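 Percent values come from Thermo SelectScreen profiling of NU5455, combining activity and binding assays. CSF1R was run in Z'LYTE format at Km app ATP, and CAMK1 in Adapta format with ATP listed at 10.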

T1 sequence (Q7KZI7 whole entry): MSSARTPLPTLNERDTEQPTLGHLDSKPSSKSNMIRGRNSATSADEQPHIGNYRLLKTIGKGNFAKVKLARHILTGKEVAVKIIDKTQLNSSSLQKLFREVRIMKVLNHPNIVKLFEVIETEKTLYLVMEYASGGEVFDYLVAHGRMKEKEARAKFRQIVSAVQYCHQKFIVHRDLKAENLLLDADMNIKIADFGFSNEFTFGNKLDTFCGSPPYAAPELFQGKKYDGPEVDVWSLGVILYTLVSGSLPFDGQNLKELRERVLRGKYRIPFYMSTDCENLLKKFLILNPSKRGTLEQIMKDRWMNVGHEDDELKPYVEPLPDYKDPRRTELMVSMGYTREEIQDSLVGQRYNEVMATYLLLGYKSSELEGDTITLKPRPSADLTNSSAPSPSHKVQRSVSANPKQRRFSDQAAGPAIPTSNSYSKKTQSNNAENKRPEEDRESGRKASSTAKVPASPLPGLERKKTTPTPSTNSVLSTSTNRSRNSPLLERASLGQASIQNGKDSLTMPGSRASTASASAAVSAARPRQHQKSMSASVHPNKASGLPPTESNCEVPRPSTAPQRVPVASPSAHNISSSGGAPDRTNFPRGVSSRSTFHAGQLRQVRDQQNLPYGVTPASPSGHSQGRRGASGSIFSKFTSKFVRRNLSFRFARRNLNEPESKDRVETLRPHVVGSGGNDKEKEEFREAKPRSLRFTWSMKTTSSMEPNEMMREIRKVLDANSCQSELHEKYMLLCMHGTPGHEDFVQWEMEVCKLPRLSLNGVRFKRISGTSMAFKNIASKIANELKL

CN(C(=O)CN1CCOCC1)c1ccc2sc3c(-c4cccc5c(=O)cc(N6CC7CCC(C6)O7)oc45)cccc3c2c1 [NU5455]
inhibition at 1 µM: 0.1%
